Columns and labels:
[1] = molecular target: Mitogen-activated protein kinase 10 (Homo sapiens) (UniProt P53779); also: assay method not described here
[2] = molecular target: NUAK family SNF1-like kinase 2 (Homo sapiens) (UniProt Q9H093); also: assay method not described here
[3] = molecular target: Transcriptional repressor CTCF (Homo sapiens) (UniProt P49711); also: assay method not described here
[4] = molecular target: Kinesin-like protein KIF2C (Homo sapiens) (UniProt Q99661); also: assay method not described here
[5] = molecular target: Ribosome biogenesis protein WDR12 (Homo sapiens) (UniProt Q9GZL7); also: assay method not described here
[6] = molecular target: Antigen peptide transporter 1 (Homo sapiens) (UniProt Q03518); also: assay method not described here
[7] = molecular target: Retinoblastoma-binding protein 5 (Homo sapiens) (UniProt Q15291); also: assay method not described here
[8] = molecular target: Pumilio homolog 2 (Homo sapiens) (UniProt Q8TB72); also: assay method not described here
[9] = molecular target: EKC/KEOPS complex subunit LAGE3 (Homo sapiens) (UniProt Q14657); also: assay method not described here
[10] = molecular target: Programmed cell death protein 10 (Homo sapiens) (UniProt Q9BUL8); also: assay method not described here
Nestin (Homo sapiens) = Nestin (Homo sapiens) (UniProt P48681); also: assay method not described here
[11] = molecular target: V-type proton ATPase 16 kDa proteolipid subunit c (Homo sapiens) (UniProt P27449); also: assay method not described here
[12] = molecular target: V-type proton ATPase subunit G 1 (Homo sapiens) (UniProt O75348); also: assay method not described here
Sequence of V-type proton ATPase subunit G 1 (Homo sapiens) (O75348 whole entry): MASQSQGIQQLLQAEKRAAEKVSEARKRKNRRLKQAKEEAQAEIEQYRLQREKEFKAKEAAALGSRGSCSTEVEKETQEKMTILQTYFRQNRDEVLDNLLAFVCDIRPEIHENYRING

[13] = molecular target: Fructose-bisphosphate aldolase A (Homo sapiens) (UniProt P04075); also: assay method not described here
Sequence of Fructose-bisphosphate aldolase A (Homo sapiens) (P04075 whole entry): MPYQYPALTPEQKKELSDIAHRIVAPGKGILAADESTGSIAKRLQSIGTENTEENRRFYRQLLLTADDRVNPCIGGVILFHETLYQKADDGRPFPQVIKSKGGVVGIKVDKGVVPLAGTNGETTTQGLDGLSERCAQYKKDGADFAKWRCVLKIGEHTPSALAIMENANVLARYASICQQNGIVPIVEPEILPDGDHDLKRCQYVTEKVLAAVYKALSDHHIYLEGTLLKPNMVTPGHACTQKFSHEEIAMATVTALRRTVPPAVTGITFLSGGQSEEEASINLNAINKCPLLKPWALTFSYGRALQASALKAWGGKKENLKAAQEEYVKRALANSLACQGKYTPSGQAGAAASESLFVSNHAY

[14] = molecular target: Serine/arginine-rich splicing factor 9 (Homo sapiens) (UniProt Q13242); also: assay method not described here
Wolframin (Homo sapiens) = Wolframin (Homo sapiens) (UniProt O76024); also: assay method not described here
Sequence of Wolframin (Homo sapiens) (O76024 whole entry): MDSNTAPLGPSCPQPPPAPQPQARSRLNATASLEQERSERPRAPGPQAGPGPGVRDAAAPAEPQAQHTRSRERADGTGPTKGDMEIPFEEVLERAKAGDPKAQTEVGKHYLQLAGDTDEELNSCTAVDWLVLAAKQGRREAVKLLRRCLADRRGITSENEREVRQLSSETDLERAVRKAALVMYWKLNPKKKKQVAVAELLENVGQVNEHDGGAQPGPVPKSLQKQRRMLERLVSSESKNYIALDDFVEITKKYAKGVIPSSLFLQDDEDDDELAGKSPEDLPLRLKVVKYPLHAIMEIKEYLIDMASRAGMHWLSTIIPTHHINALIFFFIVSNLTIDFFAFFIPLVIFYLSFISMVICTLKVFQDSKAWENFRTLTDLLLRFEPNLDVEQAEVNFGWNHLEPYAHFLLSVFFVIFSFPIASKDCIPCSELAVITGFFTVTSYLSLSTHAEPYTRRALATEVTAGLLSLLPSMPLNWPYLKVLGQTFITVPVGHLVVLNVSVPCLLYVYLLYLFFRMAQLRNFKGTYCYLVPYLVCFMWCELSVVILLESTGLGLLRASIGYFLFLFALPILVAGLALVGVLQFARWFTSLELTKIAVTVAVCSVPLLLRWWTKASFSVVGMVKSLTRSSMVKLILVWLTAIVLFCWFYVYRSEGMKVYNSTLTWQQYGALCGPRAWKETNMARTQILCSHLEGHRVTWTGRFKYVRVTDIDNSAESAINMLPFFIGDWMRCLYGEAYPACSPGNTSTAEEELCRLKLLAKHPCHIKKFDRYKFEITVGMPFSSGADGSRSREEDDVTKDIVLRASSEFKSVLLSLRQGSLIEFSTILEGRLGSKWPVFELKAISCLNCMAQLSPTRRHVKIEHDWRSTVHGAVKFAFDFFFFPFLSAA

[15] = molecular target: Glutaryl-CoA dehydrogenase, mitochondrial (Homo sapiens) (UniProt Q92947); also: assay method not described here
Sequence of Glutaryl-CoA dehydrogenase, mitochondrial (Homo sapiens) (Q92947 whole entry): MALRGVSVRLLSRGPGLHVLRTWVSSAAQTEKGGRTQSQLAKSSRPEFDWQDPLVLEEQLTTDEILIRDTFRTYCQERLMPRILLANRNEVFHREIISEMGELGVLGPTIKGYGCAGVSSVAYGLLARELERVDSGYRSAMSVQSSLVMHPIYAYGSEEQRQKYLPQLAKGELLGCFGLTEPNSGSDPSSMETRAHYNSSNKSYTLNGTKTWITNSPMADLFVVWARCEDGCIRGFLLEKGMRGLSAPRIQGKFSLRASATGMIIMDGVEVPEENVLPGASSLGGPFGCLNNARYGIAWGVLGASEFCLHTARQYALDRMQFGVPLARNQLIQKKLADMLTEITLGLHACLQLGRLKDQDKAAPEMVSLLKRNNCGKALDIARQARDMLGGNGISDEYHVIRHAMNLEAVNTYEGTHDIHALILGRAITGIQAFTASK

[16] = molecular target: Dual specificity mitogen-activated protein kinase kinase 1 (Homo sapiens) (UniProt Q02750); also: assay method not described here
Sequence of Dual specificity mitogen-activated protein kinase kinase 1 (Homo sapiens) (Q02750 whole entry): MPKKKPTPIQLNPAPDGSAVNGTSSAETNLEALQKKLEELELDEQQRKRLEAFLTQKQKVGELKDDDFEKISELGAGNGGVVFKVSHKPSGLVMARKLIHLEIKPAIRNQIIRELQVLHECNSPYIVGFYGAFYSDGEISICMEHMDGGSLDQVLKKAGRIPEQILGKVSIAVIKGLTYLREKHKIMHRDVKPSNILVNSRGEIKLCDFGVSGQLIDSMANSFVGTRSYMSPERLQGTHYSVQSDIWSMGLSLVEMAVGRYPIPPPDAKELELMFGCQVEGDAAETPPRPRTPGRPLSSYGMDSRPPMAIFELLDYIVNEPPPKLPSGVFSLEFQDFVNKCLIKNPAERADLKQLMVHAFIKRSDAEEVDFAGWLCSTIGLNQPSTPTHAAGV

[17] = molecular target: DNA repair protein RAD50 (Homo sapiens) (UniProt Q92878); also: assay method not described here
Sequence of DNA repair protein RAD50 (Homo sapiens) (Q92878 whole entry): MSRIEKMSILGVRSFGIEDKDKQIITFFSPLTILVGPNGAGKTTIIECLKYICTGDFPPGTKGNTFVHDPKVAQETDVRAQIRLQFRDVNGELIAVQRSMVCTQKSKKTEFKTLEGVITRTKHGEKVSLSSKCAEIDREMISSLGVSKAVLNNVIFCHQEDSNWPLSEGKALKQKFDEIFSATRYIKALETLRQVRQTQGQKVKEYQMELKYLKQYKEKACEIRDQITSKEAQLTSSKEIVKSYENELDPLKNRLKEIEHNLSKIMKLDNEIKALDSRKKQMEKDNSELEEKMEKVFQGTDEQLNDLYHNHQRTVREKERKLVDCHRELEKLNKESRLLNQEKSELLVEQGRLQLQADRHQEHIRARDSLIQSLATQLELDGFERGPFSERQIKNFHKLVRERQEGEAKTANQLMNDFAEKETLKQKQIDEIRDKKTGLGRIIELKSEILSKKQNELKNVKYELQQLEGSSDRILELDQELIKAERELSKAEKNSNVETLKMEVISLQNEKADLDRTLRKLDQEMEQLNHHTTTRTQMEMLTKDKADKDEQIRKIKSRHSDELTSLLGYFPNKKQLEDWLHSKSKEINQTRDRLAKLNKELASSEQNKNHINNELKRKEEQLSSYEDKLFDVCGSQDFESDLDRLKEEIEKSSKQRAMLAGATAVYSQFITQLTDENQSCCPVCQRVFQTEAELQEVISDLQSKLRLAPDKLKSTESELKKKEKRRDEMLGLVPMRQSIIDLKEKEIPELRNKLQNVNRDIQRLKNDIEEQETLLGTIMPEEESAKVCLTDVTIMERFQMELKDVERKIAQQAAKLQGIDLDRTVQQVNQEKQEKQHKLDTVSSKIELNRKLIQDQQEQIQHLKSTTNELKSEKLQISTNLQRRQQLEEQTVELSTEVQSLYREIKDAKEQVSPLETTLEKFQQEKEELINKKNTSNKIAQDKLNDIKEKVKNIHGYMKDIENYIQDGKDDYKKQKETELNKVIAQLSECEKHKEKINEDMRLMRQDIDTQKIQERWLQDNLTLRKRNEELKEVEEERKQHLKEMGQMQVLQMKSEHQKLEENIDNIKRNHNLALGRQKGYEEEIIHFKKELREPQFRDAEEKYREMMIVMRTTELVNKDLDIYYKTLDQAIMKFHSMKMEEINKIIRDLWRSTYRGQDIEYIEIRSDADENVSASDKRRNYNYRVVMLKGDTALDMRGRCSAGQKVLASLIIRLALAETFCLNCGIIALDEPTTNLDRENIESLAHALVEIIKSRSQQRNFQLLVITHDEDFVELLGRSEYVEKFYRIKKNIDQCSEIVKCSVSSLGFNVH

[18] = molecular target: Tyrosine-protein kinase BTK (Homo sapiens) (UniProt Q06187); also: assay method not described here
[19] = molecular target: Unconventional myosin-Ig (Homo sapiens) (UniProt B0I1T2); also: assay method not described here
Homo sapiens [20] = species: Homo sapiens; also: assay method not described here
[21] = molecular target: Breakpoint cluster region protein (Homo sapiens) (UniProt P11274); also: assay method not described here
[22] = molecular target: Small ribosomal subunit protein eS21 (Homo sapiens) (UniProt P63220); also: assay method not described here
[23] = molecular target: Lysine--tRNA ligase (Homo sapiens) (UniProt Q15046); also: assay method not described here
Sequence of Lysine--tRNA ligase (Homo sapiens) (Q15046 2-597 limits assumed): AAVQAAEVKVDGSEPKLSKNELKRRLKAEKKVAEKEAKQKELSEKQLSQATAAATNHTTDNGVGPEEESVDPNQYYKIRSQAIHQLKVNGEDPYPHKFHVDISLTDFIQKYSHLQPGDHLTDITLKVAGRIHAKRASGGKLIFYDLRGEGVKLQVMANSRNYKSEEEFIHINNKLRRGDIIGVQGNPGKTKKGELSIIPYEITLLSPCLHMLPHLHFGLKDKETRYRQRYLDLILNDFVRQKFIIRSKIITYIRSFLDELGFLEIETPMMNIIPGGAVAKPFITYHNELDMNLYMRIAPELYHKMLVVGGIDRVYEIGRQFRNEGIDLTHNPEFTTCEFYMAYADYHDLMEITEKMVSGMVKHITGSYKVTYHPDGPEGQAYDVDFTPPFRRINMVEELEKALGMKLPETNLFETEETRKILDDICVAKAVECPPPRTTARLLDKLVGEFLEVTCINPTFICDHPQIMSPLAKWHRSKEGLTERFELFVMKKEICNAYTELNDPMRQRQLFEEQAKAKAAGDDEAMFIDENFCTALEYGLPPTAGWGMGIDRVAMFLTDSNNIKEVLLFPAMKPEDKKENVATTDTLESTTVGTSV

[24] = molecular target: Serine/threonine-protein kinase 26 (Homo sapiens) (UniProt Q9P289); also: assay method not described here
[25] = molecular target: Dual specificity protein kinase CLK1 (Homo sapiens) (UniProt P49759); also: assay method not described here
[26] = molecular target: Microtubule-associated protein RP/EB family member 2 (Homo sapiens) (UniProt Q15555); also: assay method not described here
[27] = molecular target: ALK tyrosine kinase receptor (Homo sapiens) (UniProt Q9UM73); also: assay method not described here
Homo sapiens [28] = species: Homo sapiens; remark: listed apart in the source; also: assay method not described here
[29] = molecular target: Sorting and assembly machinery component 50 homolog (Homo sapiens) (UniProt Q9Y512); also: assay method not described here
[30] = molecular target: Splicing factor 3B subunit 2 (Homo sapiens) (UniProt Q13435); also: assay method not described here
[31] = molecular target: Large ribosomal subunit protein bL21m (Homo sapiens) (UniProt Q7Z2W9); also: assay method not described here
[32] = molecular target: Pyruvate dehydrogenase protein X component, mitochondrial (Homo sapiens) (UniProt O00330); also: assay method not described here
[33] = molecular target: Hexokinase-1 (Homo sapiens) (UniProt P19367); also: assay method not described here
Sequence of Hexokinase-1 (Homo sapiens) (P19367 whole entry): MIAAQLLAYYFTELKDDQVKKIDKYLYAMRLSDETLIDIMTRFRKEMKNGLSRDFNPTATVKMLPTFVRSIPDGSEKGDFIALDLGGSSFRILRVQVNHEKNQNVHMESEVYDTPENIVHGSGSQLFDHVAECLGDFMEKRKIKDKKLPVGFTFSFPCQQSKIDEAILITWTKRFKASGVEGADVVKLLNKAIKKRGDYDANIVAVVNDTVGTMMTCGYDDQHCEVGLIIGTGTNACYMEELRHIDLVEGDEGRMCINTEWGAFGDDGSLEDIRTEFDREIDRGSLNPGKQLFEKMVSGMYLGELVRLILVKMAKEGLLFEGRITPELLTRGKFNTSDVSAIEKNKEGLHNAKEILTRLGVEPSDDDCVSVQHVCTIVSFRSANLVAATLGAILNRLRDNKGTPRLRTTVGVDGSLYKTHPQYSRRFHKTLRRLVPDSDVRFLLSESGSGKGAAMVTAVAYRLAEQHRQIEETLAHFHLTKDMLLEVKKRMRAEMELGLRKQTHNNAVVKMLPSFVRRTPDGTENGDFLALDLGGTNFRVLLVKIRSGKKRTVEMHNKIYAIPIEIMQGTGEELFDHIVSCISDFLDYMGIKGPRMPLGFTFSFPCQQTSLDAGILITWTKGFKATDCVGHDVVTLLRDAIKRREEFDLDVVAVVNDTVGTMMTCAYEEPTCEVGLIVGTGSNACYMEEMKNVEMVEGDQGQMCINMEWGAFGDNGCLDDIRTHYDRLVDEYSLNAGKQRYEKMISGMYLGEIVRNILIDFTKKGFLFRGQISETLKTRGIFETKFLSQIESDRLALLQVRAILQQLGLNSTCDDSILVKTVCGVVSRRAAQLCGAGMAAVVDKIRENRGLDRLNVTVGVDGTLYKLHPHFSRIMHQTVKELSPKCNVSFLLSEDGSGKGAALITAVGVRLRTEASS

[34] = molecular target: Small ribosomal subunit protein uS3 (Homo sapiens) (UniProt P23396); also: assay method not described here
[35] = molecular target: Small ribosomal subunit protein eS10 (Homo sapiens) (UniProt P46783); also: assay method not described here
[36] = molecular target: DNA mismatch repair protein Msh6 (Homo sapiens) (UniProt P52701); also: assay method not described here
Ephrin type-A receptor 2 = Ephrin type-A receptor 2 (Homo sapiens, UniProt P29317); experiment: Inhibition of Nano Luc-fused full length C-terminal EPHA2 (unknown origin) expressed in HEK293T cells using NanoGlo as substrate incubated for 2 hrs in presence of tracer by NanoBRET assay; assay type: cell-based
[37] = molecular target: 10 kDa heat shock protein, mitochondrial (Homo sapiens) (UniProt P61604); also: assay method not described here
Erlin-2 (Homo sapiens) = Erlin-2 (Homo sapiens) (UniProt O94905); also: assay method not described here
[38] = molecular target: Very long-chain specific acyl-CoA dehydrogenase, mitochondrial (Homo sapiens) (UniProt P49748); also: assay method not described here
[39] = molecular target: Small ribosomal subunit protein eS28 (Homo sapiens) (UniProt P62857); also: assay method not described here
[40] = molecular target: Solute carrier family 25 member 3 (Homo sapiens) (UniProt Q00325); also: assay method not described here
[41] = molecular target: ATP synthase peripheral stalk subunit OSCP, mitochondrial (Homo sapiens) (UniProt P48047); also: assay method not described here
[42] = molecular target: Palmitoyl-protein thioesterase 1 (Homo sapiens) (UniProt P50897); also: assay method not described here

SMILES	ED50 [1] [µM]	ED50 (Nestin (Homo sapiens)) [nM]	ED50 [12] [µM]	ED50 [13] [nM]	ED50 (Wolframin (Homo sapiens)) [nM]	ED50 [15] [µM]	ED50 [16] [nM]	ED50 [17] [µM]	ED50 [18] [µM]	ED50 [21] [nM]	ED50 [22] [µM]	ED50 [23] [nM]	ED50 [25] [µM]	ED50 [26] [µM]	ED50 (Homo sapiens [28]) [nM]	ED50 [29] [nM]	ED50 [33] [µM]	ED50 [34] [nM]	ED50 [35] [nM]	other results
Cc1ccc(C(=O)Nc2cccc(C(F)(F)F)c2)cc1Nc1nc(-c2cccnc2)nc2c1cnn2C	32.9	244	501	3970	2670	7.4	3.67	8.82	5.02	488	60	758	32.5	0.0302	2310	784	0.00555	3.86	42	ED50 [2]: 1310 nM; ED50 [3]: 1990 nM; ED50 [4]: 20 nM; ED50 [5]: 1.21 nM; ED50 [6]: 63.9 nM; ED50 [7]: 21.2 µM; ED50 [8]: 526 nM; ED50 [9]: 131 µM; ED50 [10]: 2.15 nM; ED50 [11]: 2700 nM; ED50 [14]: 12.4 nM; ED50 [19]: 2.17 nM; ED50 (Homo sapiens [20]): 15.5 µM; ED50 [24]: 270 nM; ED50 [27]: 1.43 nM; ED50 [30]: 6.91 nM; ED50 [31]: 5.95 µM; ED50 [32]: 48.2 nM
Cc1ccc(C(=O)Nc2cccc(C(F)(F)F)c2)cc1Nc1nc(-c2cccnc2)nc2nn(C)cc12	1.72	1300	9.38	71.5	2660	0.169	57.4	1.74	5.75	852	0.00683	1770	0.000313	35	716	8.06	173	40.6	42.5	ED50 [36]: 49.5 nM; IC50 (Ephrin type-A receptor 2): 163 nM; ED50 [37]: 76.5 nM; ED50 (Erlin-2 (Homo sapiens)): 3.06 µM; ED50 [38]: 51 nM; ED50 [39]: 59.5 nM; ED50 [40]: 8.08 µM; ED50 [41]: 20.6 nM; ED50 [42]: 26.8 µM

From ChEMBL document CHEMBL5649169 (ChemMedChem, 2018)
